The compounds below were run against EGFR (human) (UniProt P00533).
Sequence of EGFR (human) (P00533 whole entry, looked up): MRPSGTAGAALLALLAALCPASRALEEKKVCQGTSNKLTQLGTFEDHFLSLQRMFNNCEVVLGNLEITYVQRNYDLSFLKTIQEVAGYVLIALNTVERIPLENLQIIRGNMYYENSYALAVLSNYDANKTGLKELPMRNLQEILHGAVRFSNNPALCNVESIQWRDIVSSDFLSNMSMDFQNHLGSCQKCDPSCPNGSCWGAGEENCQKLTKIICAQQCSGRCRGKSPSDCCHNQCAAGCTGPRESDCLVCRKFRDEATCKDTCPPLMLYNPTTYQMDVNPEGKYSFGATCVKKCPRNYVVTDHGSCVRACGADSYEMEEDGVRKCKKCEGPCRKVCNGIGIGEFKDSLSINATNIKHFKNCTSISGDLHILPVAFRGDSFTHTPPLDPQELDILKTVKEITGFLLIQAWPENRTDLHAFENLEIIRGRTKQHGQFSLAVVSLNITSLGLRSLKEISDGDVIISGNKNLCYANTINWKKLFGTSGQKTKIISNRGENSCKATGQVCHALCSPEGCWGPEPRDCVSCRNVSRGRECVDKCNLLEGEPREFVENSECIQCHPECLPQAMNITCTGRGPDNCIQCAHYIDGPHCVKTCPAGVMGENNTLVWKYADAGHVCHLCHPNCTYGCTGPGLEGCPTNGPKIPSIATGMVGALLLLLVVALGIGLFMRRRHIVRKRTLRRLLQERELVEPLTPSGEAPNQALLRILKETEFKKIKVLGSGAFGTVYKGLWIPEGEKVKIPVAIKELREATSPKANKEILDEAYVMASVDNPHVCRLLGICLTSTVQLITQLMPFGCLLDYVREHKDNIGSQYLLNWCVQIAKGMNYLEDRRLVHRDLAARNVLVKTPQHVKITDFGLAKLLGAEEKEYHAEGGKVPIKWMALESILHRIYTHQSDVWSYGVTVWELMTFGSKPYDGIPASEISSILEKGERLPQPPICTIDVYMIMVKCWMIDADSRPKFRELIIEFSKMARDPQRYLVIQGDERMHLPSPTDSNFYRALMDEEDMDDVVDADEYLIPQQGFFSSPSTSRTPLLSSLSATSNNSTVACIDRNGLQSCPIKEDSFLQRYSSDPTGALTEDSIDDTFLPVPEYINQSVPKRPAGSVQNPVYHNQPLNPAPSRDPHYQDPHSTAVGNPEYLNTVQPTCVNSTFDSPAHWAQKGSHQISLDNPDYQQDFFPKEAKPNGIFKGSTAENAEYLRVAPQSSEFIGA

Q: How did the IC50 turn out when `Nc1ccc2c(Nc3ccccc3)ncnc2c1` was run?
A: The IC50 was 100 nM.

Q: For `Nc1cc2ncnc(Nc3cccc([N+](=O)[O-])c3)c2cn1`, which IC50 is on record?
A: Its IC50 is 40.7 nM.

Q: How did the IC50 turn out when `CC(=O)Nc1cc2ncnc(Nc3cccc(Br)c3)c2cn1` was run?
A: The IC50 was 29.5 nM.

Q: Which IC50 does the source give for `CN(C)c1cccc(Nc2ncnc3cc(N)ncc23)c1` here?
A: Its IC50 is 1820 nM.

Q: With `COc1cc2ncnc(Nc3cccc(Br)c3)c2cn1` as the compound, how does the IC50 read?
A: The IC50 was 39.8 nM.

Q: How did the IC50 turn out when `Nc1cc2ncnc(Nc3cccc(F)c3)c2cn1` was run?
A: Its IC50 is 851 nM.

Q: How did the IC50 turn out when `Fc1cc2ncnc(Nc3cccc(Br)c3)c2cn1` was run?
A: The IC50 was 13.2 nM.

Q: Which IC50 does the source give for `Nc1cc2ncnc(Nc3ccccc3Br)c2cn1` here?
A: The IC50 was 245 nM.

Q: For `COc1cc2ncnc(Nc3ccc(Br)cc3)c2cc1OC`, which IC50 is on record?
A: Its IC50 is 0.977 nM.

Q: How did the IC50 turn out when `COc1cccc(Nc2ncnc3cc(N)ncc23)c1` was run?
A: Its IC50 is 132 nM.

Reference: the Kinase Knowledgebase extract (Sharma et al. 2016)
